{"source": "patent US20260125762A1", "about": "“METHODS OF IDENTIFYING AND TREATING TUMORS WITH SIGMA1 INHIBITORS” (Drexel University, priority 2016, published 2026)", "key": {"BT474": {"system": "BT474", "assay": "BT474 orthotopic xenograft tumor growth", "assay_type": "in vivo, female SCID Beige mice", "settings": "BT474 (predicted sensitive) in mammary fat pad; 10 mg/kg ip q2d; treatment stopped Day 30", "protocol": "(§1) BT474 cells (ATCC, Manassas, VA, cat #HTB-20) were implanted orthotopically (2×10^6 per mouse) as a mixture in Matrigel (50%) into the mammary fat pad of female SCID Beige mice (10 mice per treatment arm) and grown to a volume of about 125 mm^3 prior to compound administration. CT-110 was dosed alone at 10 mg/kg ip, once every two days (ip, q2d) in 1% (weight/volume) sodium carboxymethyl cellulose/0.5% (volume/volume) Tween-80. A control group received vehicle alone (1% (weight/volume) sodium carboxymethyl cellulose/0.5% (volume/volume) Tween-80ip q2d). All drug treatment was stopped on Day 30. The major endpoint is to assess whether the tumor growth can be delayed or mice can be cured. Tumor sizes are measured twice weekly in two dimensions using a caliper, and the volume is expressed in mm^3 using the formula: V=0.5 a×b^2 where a and b are the long and short diameters of the tumor, respectively. The tumor sizes are then used for the calculations of both T-C and T/C values. T-C is calculated with T as the median time (in days) required for the treatment group tumors to reach a predetermined size (e.g., 1,000 mm^3), and C is the median time (in days) for the control group tumors to reach the same size. The T/C value (in percent) is an indication of antitumor effectiveness, T and C are the mean volume of the treated and control groups, respectively, on a given day."}, "HT29": {"system": "HT29", "assay": "NCI-60 single-dose in vitro growth inhibition assay", "assay_type": "cell-based, human", "settings": "single-dose 10 μM", "protocol": "(§2) As in FIG. 1, Compound CT-110 was used in single-dose (10 μM) in vitro growth inhibition assays of the NCI-60 cell lines. The NCI-60 panel contains 60 diverse human cancer cell lines screened with more than 100,000 chemical compounds for anticancer activity since 1990 by the Developmental Therapeutics Program (DTP). See Huang, et al., 2005, Pharmacogenomics J. 5:381-99; Staunton, et al., 2001, PNAS USA 98(19):10787-92; Covell, et al., 2007, Mol. Cancer Ther. 6:2261-70; Potti, et al., 2006. Nat. Med. 12(11):1294-300. Standardization of NCI-60 inhibition data into Z-scores. NCI-60 cell line percent growth data obtained after culture in the presence of CT-110 were converted to percent growth inhibition by the formula 100−% Growth. A Z-score for each cell line data point was calculated using the formula (X-value minus 60-element array average)/(Array standard deviation). Z-scores are associated with a normal distribution and are used (1) to indicate where a score lies relative to the entire data set, above or below the mean, and (2) to compare scores derived from different normal distributions. Narrowing the 25K+ CellMiner genes to a CT-110 inhibition signature set of 6 genes. Pattern comparison searching yielded a list of 1,080 genes having significant Pearson correlations (r>0.334 or r<−0.334) to the NCI-60 Z-score profile of CT-110. Cross-referencing this profile-matching list with 1,106 cancer-relevant genes comprising a 755-gene PanCancer and Custom Codeset, supplemented with 545 “Cancer Driver” genes (Integrative OncoGenomics, BROAD Institute TARGET Database v3, Targeted Therapies for Cancer), reduced the number of genes to fifty (50). NCI-60-based Z-score profiles for these 50 genes were obtained using the CellMiner “Cell Line Signature Analysis” query. […] Z-scores, reflective of gene expression level and directionality, were used to identify forty-five (45) genes out of the […] (Table 3) that had expression either up or down in at least 4 out of the 5 CT-110-sensitive or resistant cell lines (assessed independently). […] These six genes (CDH1, CREB3L4, PIK3C2B, RNF43, SREBF1 and ZMYM2) are the end result of the rational approach to establish a focused set of genes, with expression profiles reflecting the growth inhibition profile of CT-110 in sensitive and resistant cancer cell lines."}, "OVCAR-8": {"system": "OVCAR-8", "assay": "NCI-60 single-dose in vitro growth inhibition assay", "assay_type": "cell-based, human", "settings": "single-dose 10 μM", "protocol": "as §2"}, "UACC-257": {"system": "UACC-257", "assay": "NCI-60 single-dose in vitro growth inhibition assay", "assay_type": "cell-based, human", "settings": "single-dose 10 μM", "protocol": "as §2"}, "SK-MEL-5": {"system": "SK-MEL-5", "assay": "NCI-60 single-dose in vitro growth inhibition assay", "assay_type": "cell-based, human", "settings": "single-dose 10 μM", "protocol": "as §2"}, "COLO205": {"system": "COLO205", "assay": "NCI-60 single-dose in vitro growth inhibition assay", "assay_type": "cell-based, human", "settings": "single-dose 10 μM", "protocol": "as §2"}, "SK-MEL-28": {"system": "SK-MEL-28", "assay": "NCI-60 single-dose in vitro growth inhibition assay", "assay_type": "cell-based, human", "settings": "single-dose 10 μM", "protocol": "as §2"}, "OVCAR-3": {"system": "OVCAR-3", "assay": "NCI-60 single-dose in vitro growth inhibition assay", "assay_type": "cell-based, human", "settings": "single-dose 10 μM", "protocol": "as §2"}, "SK-MEL-2": {"system": "SK-MEL-2", "assay": "NCI-60 single-dose in vitro growth inhibition assay", "assay_type": "cell-based, human", "settings": "single-dose 10 μM", "protocol": "as §2"}, "MCF7": {"system": "MCF7", "assay": "NCI-60 single-dose in vitro growth inhibition assay", "assay_type": "cell-based, human", "settings": "single-dose 10 μM", "protocol": "as §2"}, "RPMI-8226": {"system": "RPMI-8226", "assay": "NCI-60 single-dose in vitro growth inhibition assay", "assay_type": "cell-based, human", "settings": "single-dose 10 μM", "protocol": "as §2"}, "MDAMB231": {"system": "MDAMB231", "assay": "MDAMB231 orthotopic xenograft tumor growth", "assay_type": "in vivo, female SCID Beige mice", "settings": "MDAMB231 (predicted resistant) in mammary fat pad; 10 mg/kg ip q2d; treatment stopped Day 20", "protocol": "as §1, with “MDAMB231” for “BT474”, “#HTB-26)” for “#HTB-20)”, “75” for “125”, “20.” for “30.”"}}}
{"smiles": "N=C(NCCCOc1ccc(F)cc1)Nc1ccc(Cl)cc1", "note": "[CT-110, 1-(3-(4-fluorophenoxy)propyl)-3-(4-chlorophenyl)guanidine]", "values": [{"measurement": "tumor growth T/C", "setting": "BT474", "result": 70, "unit": "%"}, {"measurement": "sensitivity to Sigma1 inhibition by CT-110 (growth inhibition rank in NCI-60)", "setting": "HT29", "result": "most sensitive"}, {"measurement": "sensitivity to Sigma1 inhibition by CT-110 (growth inhibition rank in NCI-60)", "setting": "OVCAR-8", "result": "most resistant"}, {"measurement": "sensitivity to Sigma1 inhibition by CT-110 (growth inhibition rank in NCI-60)", "setting": "UACC-257", "result": "most sensitive"}, {"measurement": "sensitivity to Sigma1 inhibition by CT-110 (growth inhibition rank in NCI-60)", "setting": "SK-MEL-5", "result": "most sensitive"}, {"measurement": "sensitivity to Sigma1 inhibition by CT-110 (growth inhibition rank in NCI-60)", "setting": "COLO205", "result": "most sensitive"}, {"measurement": "sensitivity to Sigma1 inhibition by CT-110 (growth inhibition rank in NCI-60)", "setting": "SK-MEL-28", "result": "most resistant"}, {"measurement": "sensitivity to Sigma1 inhibition by CT-110 (growth inhibition rank in NCI-60)", "setting": "OVCAR-3", "result": "most resistant"}, {"measurement": "sensitivity to Sigma1 inhibition by CT-110 (growth inhibition rank in NCI-60)", "setting": "SK-MEL-2", "result": "most resistant"}, {"measurement": "sensitivity to Sigma1 inhibition by CT-110 (growth inhibition rank in NCI-60)", "setting": "MCF7", "result": "most sensitive"}, {"measurement": "sensitivity to Sigma1 inhibition by CT-110 (growth inhibition rank in NCI-60)", "setting": "RPMI-8226", "result": "most resistant"}, {"measurement": "tumor growth T/C", "setting": "MDAMB231", "result": "< 10", "unit": "%"}]}
